These results are taken from patent US11534443B2, “Quinazoline compounds, preparation method, use, and pharmaceutical composition thereof” (INSTITUTE OF MATERIA MEDICA, CHINESE ACADEMY OF MEDICAL …, priority 2016, dated 2022).

In general, IC50 refers to the point on the concentration scale where inhibition reaches its midpoint. Read a high IC50 as weaker potency.

The subject of test [1] is human lung cancer cell NCI-H460. The test can be described thus: Tumor cell viability by MTT assay. Format: cell-based. To be noted: Homo sapiens, NCI-H460, 96 h. How it is done: After 24 hours, 100 μL of fresh medium containing different concentrations of test compounds and the corresponding solvent control was added into each well to a final concentration of DMSO less than 0.2%. Six to nine concentration groups were set for each test compound, and three parallel wells were set for each group. The plate was incubated at 5% CO2, 37° C. for 96 hours. 20 μL of freshly prepared PBS solution containing 5 mg/mL MTT was added to each well. The supernatant was discarded after incubation for another 4 hours. 150 μL DMSO was added to each well to dissolve the MTT formazan precipitate. After being mixed by a micro-oscillator, the optical density (OD) was measured at the wavelength of 570 nm, and the tumor cells treated with DMSO were used as a control group.
On the technique in general: Tetrazolium dyes change colour on reduction, which living cells bring about.

Test [2] has as its target PI3Kα (Homo sapiens (Human), UniProt P42336). The test can be described thus: Biochemical evaluation of activity of PI3Kα (Kinase-Glo luminescence kinase assay). Particulars: 25 μM ATP, 50 μM PIP2, 1 h at room temperature. How it is done: The potency of compounds in the present intention against PI3Kα was assessed by in vitro kinase assay. The kinase activity of PI3Kα was determined by detecting the level of ADP produced in the kinase reaction with luciferase-based luminescence detection.
The Kinase-Glo™ Kinase Assay Kit was purchased from Promega. All assays were performed at room temperature using white OptiPlate™-384 well plate. The PI3Kα kinase was purchased from Invitrogen. The substrate was PIP2 from Invitrogen. The kinase buffer contained 50 mM Hepes (pH 7.5), 3 mM MgCl2, 100 mM NaCl, 1 mM EGTA, 0.03% CHAPS and 2 mM DTT. […] The substrate solution contained 100 μM PIP2 and 50 μM ATP. The test compound was diluted to 10 mM in 100% DMSO and serially diluted three times into ten different concentrations in 100% DMSO. The compound diluted in 100% DMSO was diluted 25-fold in 1×kinase buffer. 2.5 μL of the diluted compound solution and 2.5 μL PI3Kα kinase solution were added to each well of a 384-well plate. The reaction was initiated by addition of 5 μL substrate solution to each well. […] The plate was then covered and the reaction was allowed to proceed for one hour at room temperature, followed by the addition of 10 μL Kinase-Glo™ reagent to each well to stop the reaction.
The percentage of inhibition was calculated as follows: Inhibition %=100−(max−sample RLU)/(max−min)*100
wherein sample RLU was the luminescence reading for a given compound concentration, min was the reading of DMSO control, and max was the reading of the enzyme-free control. The IC50 value was calculated with the XLfit program in Excel.
A general note: In Kinase-Glo more light means more ATP remaining.

Sequence of PI3Kα (P42336 whole entry): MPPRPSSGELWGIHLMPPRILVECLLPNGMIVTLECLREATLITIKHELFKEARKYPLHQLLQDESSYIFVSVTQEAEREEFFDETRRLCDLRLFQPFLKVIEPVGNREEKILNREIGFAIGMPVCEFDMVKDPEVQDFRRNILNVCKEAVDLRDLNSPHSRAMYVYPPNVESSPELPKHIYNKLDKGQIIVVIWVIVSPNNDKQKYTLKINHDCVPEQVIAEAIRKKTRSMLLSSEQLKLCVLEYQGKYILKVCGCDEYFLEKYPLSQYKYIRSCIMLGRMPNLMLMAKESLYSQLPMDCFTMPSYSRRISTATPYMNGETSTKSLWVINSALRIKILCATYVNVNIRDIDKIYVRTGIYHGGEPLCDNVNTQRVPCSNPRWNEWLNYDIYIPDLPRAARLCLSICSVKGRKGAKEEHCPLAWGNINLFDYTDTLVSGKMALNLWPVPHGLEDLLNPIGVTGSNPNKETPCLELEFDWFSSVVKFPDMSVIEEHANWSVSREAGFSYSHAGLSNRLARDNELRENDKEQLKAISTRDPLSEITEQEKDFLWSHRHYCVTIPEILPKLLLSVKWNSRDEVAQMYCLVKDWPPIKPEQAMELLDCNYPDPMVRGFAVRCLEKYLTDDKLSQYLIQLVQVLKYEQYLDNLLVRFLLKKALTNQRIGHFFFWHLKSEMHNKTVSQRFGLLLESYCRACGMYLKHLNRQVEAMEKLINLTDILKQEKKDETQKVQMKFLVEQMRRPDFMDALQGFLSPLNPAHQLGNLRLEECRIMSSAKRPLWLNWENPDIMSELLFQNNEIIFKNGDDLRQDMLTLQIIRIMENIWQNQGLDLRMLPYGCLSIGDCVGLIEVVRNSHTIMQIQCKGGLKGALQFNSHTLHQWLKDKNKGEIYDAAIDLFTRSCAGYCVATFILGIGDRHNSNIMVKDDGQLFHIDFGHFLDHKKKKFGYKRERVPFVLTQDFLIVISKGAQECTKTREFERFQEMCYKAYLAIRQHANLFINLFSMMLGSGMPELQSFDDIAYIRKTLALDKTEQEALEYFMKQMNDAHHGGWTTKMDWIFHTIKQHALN
Sequence of PI3Kα (P27986 whole entry partner): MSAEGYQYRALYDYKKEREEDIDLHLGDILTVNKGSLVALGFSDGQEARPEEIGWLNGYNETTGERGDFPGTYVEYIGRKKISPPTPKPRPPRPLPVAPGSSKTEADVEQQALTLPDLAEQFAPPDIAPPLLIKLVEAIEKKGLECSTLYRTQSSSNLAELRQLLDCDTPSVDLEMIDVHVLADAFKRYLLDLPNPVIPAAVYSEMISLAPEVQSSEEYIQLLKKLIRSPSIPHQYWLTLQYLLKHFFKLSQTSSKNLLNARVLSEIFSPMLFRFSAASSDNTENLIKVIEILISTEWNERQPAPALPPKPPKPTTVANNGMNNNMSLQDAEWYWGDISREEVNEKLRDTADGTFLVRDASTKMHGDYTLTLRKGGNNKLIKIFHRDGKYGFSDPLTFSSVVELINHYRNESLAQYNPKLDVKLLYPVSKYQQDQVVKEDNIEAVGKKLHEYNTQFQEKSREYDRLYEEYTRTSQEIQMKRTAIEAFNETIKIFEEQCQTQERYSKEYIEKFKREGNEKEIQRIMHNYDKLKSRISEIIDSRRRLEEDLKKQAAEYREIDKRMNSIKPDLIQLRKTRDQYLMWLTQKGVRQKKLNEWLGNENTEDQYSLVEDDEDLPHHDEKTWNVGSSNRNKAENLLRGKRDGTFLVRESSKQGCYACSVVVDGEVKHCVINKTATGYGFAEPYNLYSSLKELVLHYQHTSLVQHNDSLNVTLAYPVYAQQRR

For `COc1ncc(-c2cc(OC3CCOCC3)c3nc(N)nc(C)c3c2)cc1NS(=O)(=O)c1ccc(F)cc1` [Example 3, N-(5-(2-amino-4-methyl-8-((tetrahydro-2H-pyran-4-yl)oxy)quinazolin-6-yl)-2-methoxypyridin-3-yl)-4-fluorobenzenesulfonamide], the IC50 in test [1] is 96 nM. That is a double-digit nanomolar value.

`COc1ncc(-c2cc(OC3CCOCC3)c3nc(N)nc(C)c3c2)cc1NS(=O)(=O)c1ccc(Cl)s1` [Example 4, N-(5-(2-amino-4-methyl-8-((tetrahydro-2H-pyran-4-yl)oxy)quinazolin-6-yl)-2-methoxypyridin-3-yl)-5-chlorothiophene-2-sulfonamide] gave an IC50 in test [2] of 0.74 nM.

`COc1ncc(-c2cc(OC3CCOC(C)(C)C3)c3nc(N)nc(C)c3c2)cc1NS(=O)(=O)c1ccc(F)cc1F` (centres unmarked) [Example 19, N-(5-(2-amino-8-((2,2-dimethyltetrahydro-2H-pyran-4-yl)oxy)-4-methylquinazolin-6-yl)-2-methoxypyridin-3-yl)-2,4-difluorobenzenesulfonamide] returned an IC50 in test [2] of 1 nM. As for `COc1ncc(-c2cc(OCC3CCCO3)c3nc(N)nc(C)c3c2)cc1NS(=O)(=O)c1ccc(F)cc1F` (centres unmarked) [Example 20, N-(5-(2-amino-4-methyl-8-((tetrahydrofuran-2-yl)methoxy)quinazolin-6-yl)-2-methoxypyridin-3-yl)-2,4-difluorobenzenesulfonamide], the midpoint of inhibition in test [2], the IC50, lay at 1.3 nM. The IC50 values of the last two compounds are within 1.5-fold of each other. `COc1ncc(-c2cc(OCC3CCOC3)c3nc(N)nc(C)c3c2)cc1NS(=O)(=O)c1ccc(F)cc1F` (centres unmarked) [Example 21, N-(5-(2-amino-4-methyl-8-((tetrahydrofuran-3-yl)methoxy)quinazolin-6-yl)-2-methoxypyridin-3-yl)-2,4-difluorobenzenesulfonamide] had an IC50 in test [2] of 1 nM. On the same count and under the same terms, then `COc1ncc(-c2cc(OC3CCCC3)c3nc(N)nc(C)c3c2)cc1NS(=O)(=O)c1ccc(F)cc1F` [Example 23, N-(5-(2-amino-8-(cyclopentyloxy)-4-methylquinazolin-6-yl)-2-methoxypyridin-3-yl)-2,4-difluorobenzenesulfonamide], with 1.1 nM; and `COc1ncc(-c2cc(OC3CCC3)c3nc(N)nc(C)c3c2)cc1NS(=O)(=O)c1ccc(F)cc1F` [Example 24, N-(5-(2-amino-8-cyclobutoxy-4-methylquinazolin-6-yl)-2-methoxypyridin-3-yl)-2,4-difluorobenzenesulfonamide], with 0.8 nM. For `CNc1nc(C)c2cc(-c3cnc(OC)c(NS(=O)(=O)c4ccc(F)cc4F)c3)cc(O[C@H]3CCOC3)c2n1` [Example 35, (S)—N-(2-methoxy-5-(4-methyl-2-(methylamino)-8-((tetrahydrofuran-3-yl)oxy)quinazolin-6-yl)pyridin-3-yl)-2,4-difluorobenzenesulfonamide], the IC50 in test [2] was 1.8 nM. This IC50 is about 2.2-fold higher than that of the compound before.

In test [2], `CNc1nc(C)c2cc(-c3cnc(OC)c(NS(=O)(=O)c4ccc(F)cc4F)c3)cc(OC3CCCC3)c2n1` [Example 40, N-(5-(8-(cyclopentyloxy)-4-methyl-2-(methylamino)quinazolin-6-yl)-2-methoxypyridin-3-yl)-2,4-difluorobenzenesulfonamide] registered an IC50 of 8.5 nM.

In test [2], `CNc1nc(C)c2cc(-c3cnc(OC)c(NS(=O)(=O)c4ccc(F)cc4F)c3)cc(OC3CCC3)c2n1` [Example 41, N-(5-(8-cyclobutoxy-4-methyl-2-(methylamino)quinazolin-6-yl)-2-methoxypyridin-3-yl)-2,4-difluorobenzenesulfonamide] registered an IC50 of 5 nM.

On to `COc1ncc(-c2cc(OCCN3CCOCC3)c3ncnc(C)c3c2)cc1NS(=O)(=O)c1ccc(F)cc1F` [Example 65, N-(2-methoxy-5-(4-methyl-8-(2-morpholinoethoxy)quinazolin-6-yl)pyridin-3-yl)-2,4-difluorobenzenesulfonamide], for which, in test [1], the IC50 is 630 nM.
